# Read-outs that look alike come from different tables or passages of the source.
# Experiments:
# [1] = tested on: ovarian tumor cells injected subcutaneously; details: 31st day from tumor inoculation; 30 consecutive days; AY/NY 0.3 ml oral once per day, CTX 30 mg/kg/day s.c.
# Description: (§1) The biological composition comprising 10^8 cells per ml of activated and conditioned yeast cells of the strain Saccharomyces cerevisiae Hansen strain AS2.502 was prepared by the methods described in Section 5.1 and subsections therein
# The mice injected with tumor cells were kept for 5 days and then were divided into 4 experimental groups of ten mice per group and one control group. The four experimental groups were triplicated (i.e., using a total of 120 mice in the experimental groups).
# The mice received the biological compositions, untreated yeast cells, CTX or saline on the same day as the tumor cells were transplanted. The mice in group CK2 also started receiving saline on the same day as the other four groups. The biological compositions, untreated yeast cells and saline were administered orally by a feeding tube and the CTX by subcutaneous injection for 30 consecutive days. […] The weight of the mice and the weight of the tumor were determined by standard techniques.
# [2] = tested on: ovarian tumor cells injected subcutaneously; details: for Number of live animals remaining in the groups after 30 days of treatment: 30 mice per group
# Description: The survival time of mice after tumor injection and treatment was studied.
# as §1
# The animals were prepared in a similar manner as described in Section 8.1.
# The mice injected with tumor cells were kept for 5 days and then were divided into 4 experimental groups of ten mice per group and one control group. The four experimental groups were triplicated (i.e., using a total of 120 mice in the experimental groups). In group 2AY, the mice received 0.3 ml of the biological composition once per day. In group 2NY, the mice received 0.3 ml of the untreated yeast cells once per day. In group 2CTX, the mice were injected subcutaneously with […] of cyclophosphamide (CTX) per kg body weight per day. In group 2CK1, the mice received 0.3 ml of physiological saline once per day.
# The mice received the biological compositions, untreated yeast cells, CTX or saline on the same day as the tumor cells were transplanted. Mice in group 2CK2 also started receiving saline on the same day as the other four groups. The biological compositions, untreated yeast cells and saline were administered orally by a feeding tube and the CTX by subcutaneous injection for 30 consecutive days. The mice were observed over 6 months from the day of tumor inoculation and survival was recorded. The weight of the mice and the weight of the tumor were determined by standard techniques.
# [3] = tested on: human ovarian cancer cells transplanted into mice; assay: Tumor growth in mouse model of human ovarian cancer (orthotopic transplant), Example 6; assay type: in vivo; details: 31st day from tumor inoculation; 30 consecutive days; AY/NY 0.3 ml oral once per day, TSPA 1.5 mg/kg/day i.v.
# From the text: Numerous animal studies have reported the use of orthotopic transplant technique in female mouse models to study the treating of ovarian cancer. See, for example, Animals for Experiments and Experimental Techniques, Chinese Medical Publisher, 1997. The use of orthotopic transplant technique has been highly successful in the development of mouse models of human ovarian cancer.
# The human ovarian cancer sample is carefully selected before, during, and after surgery in order to ensure transplant occurred at the equivalent position in the mouse. The ovarian cancer sample is obtained from patients who have not received any radiation, chemotherapy, or immune enhancement treatment.
# The mouse were starved for 24 hours before the surgery. The animals were generally anaesthetized. The barbiturates was first diluted in saline and then injected at 0.3 to 0.4 ml per animal, or 30 mg per kg body weight, into the abdomen of the mice. Under sterile conditions, a 1 cm long opening in the body cavity was cut along the right rib of the mice for engraftment of the tumor. About 10^6 units of tumor cells (about 2 mg tumor pieces per ml culture medium) were transplanted. Afterwards, the opening was sutured and the mice were put back into the cage. The animals were allowed to grow for three to five weeks or when the tumor grows to about 1 to 2 cm^3 in size. […]
# [4] = tested on: human ovarian cancer cells transplanted into mice; assay: Survival over 6 months in mouse model of human ovarian cancer, Example 7; assay type: in vivo; details: for Number of live animals remaining in the groups after 30 days of treatment: 30 mice per group
# Description: In group 2TSPA, the mice were injected intravenously with 1.5 mg of thiotepa (TSPA) per kg body weight per day.
# [5] = 2 months after cessation of treatment
# [6] = 3 months after cessation of treatment
# [7] = 4 months after cessation of treatment
# [8] = 5 months after cessation of treatment
# [9] = 6 months after cessation of treatment
# [10] = mice that survived the 6 months observation
compound,measurement,setting,value
"O=P1(N(CCCl)CCCl)NCCCO1 (centres unmarked) [CTX, cyclophosphamide]",mean weight of mice and standard deviation,[1],20 ± 2.3 g
same,mean weight of tumor nodules and standard deviation,[1],3.3 ± 1.4 g
same,Number of live animals remaining in the groups after 30 days of treatment,"[2]; 1 month after cessation of treatment, 2AY/2NY 0.3 ml oral per day, 2CTX 305 mg/kg/day s.c. (30 mg)",30
same,Number of live animals remaining in the groups after 30 days of treatment,[2]; [5],30
same,Number of live animals remaining in the groups after 30 days of treatment,[2]; [6],23
same,Number of live animals remaining in the groups after 30 days of treatment,[2]; [7],14
same,Number of live animals remaining in the groups after 30 days of treatment,[2]; [8],9
same,Number of live animals remaining in the groups after 30 days of treatment,[2]; [9],0
same,survival outcome during the experiment,"[2]; in words, 6 months observation, 2NY 0.3 ml per day, 2CTX 30 mg/kg per day",all died
same,mean weight of mice and standard deviation,[2]; [10],all animals dead
same,mean weight of tumor nodules and standard deviation,[2]; [10],all animals dead
"S=P(N1CC1)(N1CC1)N1CC1 [TSPA, thiotepa]",mean weight of mice and standard deviation,[3],21 ± 2.1 g
same,mean weight of tumor nodules and standard deviation,[3],3.1 ± 0.8 mg
same,Number of live animals remaining in the groups after 30 days of treatment,"[4]; 0 month after cessation of treatment, 2AY/2NY 0.3 ml oral per day, 2TSPA 1.5 mg/kg/day i.v.",30
same,Number of live animals remaining in the groups after 30 days of treatment,[4]; 1 month after cessation of treatment,24
same,Number of live animals remaining in the groups after 30 days of treatment,[4]; [5],7
same,Number of live animals remaining in the groups after 30 days of treatment,[4]; [6],2
same,Number of live animals remaining in the groups after 30 days of treatment,[4]; [7],0
same,Number of live animals remaining in the groups after 30 days of treatment,[4]; [8],0
same,Number of live animals remaining in the groups after 30 days of treatment,[4]; [9],0
same,survival outcome during the experiment,"[4]; in words, 6 months observation, 2NY 0.3 ml per day, 2TSPA 1.5 of thiotepa per kg per day",all died
same,mean weight of mice and standard deviation,[4]; [10],all animals dead
same,mean weight of tumor nodules and standard deviation,[4]; [10],all animals dead
